Measured values taken from patent publication US6787315B2, “Methods for identifying ligand binding sites in a biomolecule” (priority 2001, dated 2004).

System: 16S RNA versus modified 16S RNA (5IU1495)
Assay: Dissociation rate of binary ligand complexes versus relative energy (capillary exit-skimmer voltage), ESI-FT-ICR MS
Format: binding, E. coli
Settings: Example 8: 2-deoxystreptamine 100 μM, RNAs 2.5 μM each
Protocol: The following examples illustrate preferred embodiments of the present invention using mass spectrometry. Experiments were performed using a 7.0 Tesla Fourier transform ion cyclotron resonance (FT-ICR) mass spectrometer with an electrospray ionization source operating in the negative mode. A −3000 V difference was employed between the spray tip and the inlet capillary to generate the electrospray. Samples were introduced at a flow rate of 1.5 uL/min using a Harvard syringe pump and a 50 uL glass syringe. The desolvation of the electrospray droplets was aided by a flow of countercurrent gas at 1 L/min. Ions were accumulated for 1.0 sec in an intermediate hexapole ion storage region at 1.0×10^−5 mbar. Following transfer to the FT-ICR analysis cell, the image current was measured over a mass range of 500-4000 m/z. Typically, a total of 32 transients containing 512 kbytes were summed prior to Fourier transformation. […]
An aqueous solution containing 50 mM ammonium acetate buffer (pH 7.0), 33% isopropyl alcohol, 2-deoxystreptamine (100 μM), 16S RNA (2.5 μM) and a modified 16S RNA (2.5 μM) was prepared. […] The peaks were integrated and ion abundances determined for each of the separate runs. Fractions of 16S+2-DOS and 5IU1495+2-DOS complexes were determined and plotted according to relative energy as depicted in FIG. 6. […]

N[C@@H]1C[C@H](N)[C@@H](O)C(O)[C@H]1O (some centres unmarked) [2-deoxystreptamine]
Difference in dissociation rate (slope) between the 16S and 5IU1495 systems, first region (1 to 2 relative energy units (FIG. 6)): about 25%
Dissociation rate (slope) of 16S versus 5IU1495 systems, higher energy region (2 to 4 relative energy units (FIG. 6)): substantially equal
